Values after ≈ are worked out from the molar mass of the structure shown. “Also recorded” adds a separate entry of the source. Counter-ions that a name gives are not always drawn. Like-named read-outs stand apart in the source and are kept apart here.
What was measured:
[1] = Single-dose pharmacokinetic study, artemether sublingual spray vs oral tablets; assay type: in vivo, human; conditions: for λz elimination rate constant, Plasma Artemether / Cmax / Tmax / AUC(0-t) / Vd/F / half-life: n = 16, mean ± SD; for Cmax / Tmax / AUC(0-t) / Vd/F / half-life / bioavailability: male, human, plasma; for AUC(0-t): read-out: AUC0-12, Plasma Artemether; for Vd/F: read-out: V/F apparent volume of distribution, Plasma Artemether; for half-life: read-out: t1/2 elimination half-life, Plasma Artemether (converted); for bioavailability: other: sublingual, ± S.D.
Description: Trials were carried out on healthy male adult human volunteers (16 subjects per cohort), and subject to normal ethical approval. Three single-dose regimes according to the present invention were studied, and compared to a regime using oral-dosed tablets, as follows: Spray formulations of artemether were prepared as detailed above, and administered, on a single occasion, to a group of volunteers by the sublingual route. […] Following administration of each dosage regime, blood samples were taken from the subjects, and plasma concentrations of artemether and its immediate metabolite dihydroartemesinin were determined, in order to compare bioavailability by the two routes.

[2] = Solubility enhancement by heat or essential oil (menthol) in Miglyol; assay type: physicochemical; conditions: heat or menthol added (separate solutions)
[3] = Repeat-dose artemether sublingual spray study (avoidance of autoinduction); assay type: in vivo, human; conditions: 30 mg artemether sublingual spray single on days 1 and 5, twice daily on days 2, 3 and 4
Description: A similar avoidance of autoinduction is expected with delivery by the transmucosal buccal or nasal route. In confidential trials, volunteers followed the following treatment: A single administration of 30 mg artemether sublingual spray 6 mg/actuation on days 1 and 5 following an overnight fast, and twice daily administrations of 30 mg artemether sublingual spray 3 mg/actuation on days 2, 3, and 4 following a morning or evening meal. Blood samples were collected for pharmacokinetic analysis at the following time points: Day 1: Predose, 0.25, 0.5, 0.75, 1, 1.5, 2, 2.5, 3, 4, 6, 8, and 12 h after dosing. Days 2, 3, and 4: pre morning dose and 0.5, 1, 2 and 4 h after morning dose and pre evening dose and 1 hour after evening dose. Day 5: Predose, 0.25, 0.5, 0.75, 1, 1.5, 2, 2.5, 3, 4, 6, 8, 12 h and 24 h after dosing.

[4] = Solubility tests in Miglyol 810; conditions: Miglyol 810, magnetic stirring; amount and volume per drug as in the block
[5] = physchem; conditions: oil or lipid
[6] = 15 mg, T1: single sublingual 15 mg Artemether sublingual spray, 3 mg per actuation
[7] = 30 mg, T2: single sublingual 30 mg Artemether sublingual spray, 3 mg per actuation
[8] = 30 mg, T3: single sublingual 30 mg Artemether sublingual spray, 6 mg per actuation
[9] = po, 30 mg, T4: single oral 30 mg Artemether Tablets, 10 mg per Tablet

Structure (SMILES): CO[C@H]1O[C@@H]2O[C@@]3(C)CC[C@H]4[C@H](C)CC[C@@H]([C@H]1C)[C@@]24OO3 [Artemether]
- absorption (comparison of AUC0-12), sublingual spray vs oral tablet dosing ([1]; 12 hours following the doses, preliminary results): significant and surprisingly higher absorption
- λz elimination rate constant, Plasma Artemether ([1]; T1: single sublingual 15 mg Artemether sublingual spray, 3 mg per actuation): 1.11 ± 0.40 h⁻¹
- λz elimination rate constant, Plasma Artemether ([1]; T2: single sublingual 30 mg Artemether sublingual spray, 3 mg per actuation): 0.56 ± 0.20 h⁻¹
- λz elimination rate constant, Plasma Artemether ([1]; T3: single sublingual 30 mg Artemether sublingual spray, 6 mg per actuation): 0.59 ± 0.25 h⁻¹
- λz elimination rate constant, Plasma Artemether ([1]; T4: single oral 30 mg Artemether Tablets, 10 mg per Tablet): 0.31 ± 0.15 h⁻¹
- Cmax [1, 6]: 16.1 ± 8.69 ng/mL
- Tmax [1, 6]: 1.7 ± 0.68 h
- AUC(0-t) [1, 6]: 25.9 ± 13.9 ng·h/mL
- Vd/F [1, 6]: 680 ± 330 L
- half-life [1, 6]: 0.72 ± 0.3 h
- Cmax [1, 7]: 32.1 ± 16.4 ng/mL
- Tmax [1, 7]: 1.73 ± 0.82 h
- AUC(0-t) [1, 7]: 76.6 ± 43.1 ng·h/mL
- Vd/F [1, 7]: 1000 ± 550 L
- half-life [1, 7]: 1.39 ± 0.49 h
- Cmax [1, 8]: 35.2 ± 23.9 ng/mL
- Tmax [1, 8]: 1.67 ± 0.77 h
- AUC(0-t) [1, 8]: 71.1 ± 41.1 ng·h/mL
- Vd/F [1, 8]: 1010 ± 490 L
- half-life [1, 8]: 1.4 ± 0.59 h
- bioavailability ([1]; 15 mg, T1 (15 mg sublingual spray, 3 mg/actuation) vs T4 (30 mg oral tablets), read-out: F-value FT1-T4 (relative bioavailability of artemether)): 167 ± 60%
- bioavailability ([1]; 30 mg, T2 (30 mg sublingual spray, 3 mg/actuation) vs T4 (30 mg oral tablets), read-out: F-value FT2-T4 (relative bioavailability of artemether)): 224 ± 92%
- bioavailability ([1]; 30 mg, T3 (30 mg sublingual spray, 6 mg/actuation) vs T4 (30 mg oral tablets), read-out: F-value FT3-T4 (relative bioavailability of artemether)): 209 ± 69%
- Cmax [1, 9]: 10.1 ± 7.19 ng/mL
- Tmax [1, 9]: 1.02 ± 0.86 h
- AUC(0-t) [1, 9]: 34.6 ± 21 ng·h/mL
- Vd/F [1, 9]: 3900 ± 2900 L
- half-life [1, 9]: 3.44 ± 4.26 h

Structure (SMILES): CCCC1O[C@@H]2C[C@H]3[C@@H]4CCC5=CC(=O)C=C[C@]5(C)[C@H]4[C@@H](O)C[C@]3(C)[C@]2(C(=O)CO)O1 (stereo partly drawn) [Budesonide]
- solubility in Miglyol with the addition of heat or menthol [2]: appeared to dissolve; also recorded: soluble with the addition of heat or menthol

Structure (SMILES): C[C@H]1[C@@H](O)O[C@@H]2O[C@@]3(C)CC[C@H]4[C@H](C)CC[C@@H]1[C@@]24OO3 [Dihydroartemesinin]
- pharmacokinetic analysis of plasma dihydroartemesinin, day 1 vs day 5 [3]: effectively identical response

Structure (SMILES): Oc1ccc2c3c1O[C@H]1[C@@H](O)CC[C@@]4(O)[C@@H](C2)N(CC2CCC2)CC[C@]314 [Nalbuphine HCl]
- solubility in Miglyol [4]: not soluble

Structure (SMILES): C=CCN1CC[C@]23c4c5ccc(O)c4O[C@H]2C(=O)CC[C@@]3(O)[C@H]1C5 [Naloxone]
- solubility in Miglyol [4]: sparingly soluble

Structure (SMILES): O=C1CC[C@@]2(O)[C@H]3Cc4ccc(O)c5c4[C@@]2(CCN3CC2CC2)[C@H]1O5 [Naltrexone Base]
- solubility in Miglyol with the addition of heat or menthol [2]: soluble with the addition of heat or menthol
- solubility in Miglyol [4]: sparingly soluble

Structure (SMILES): CCCNC(C)C(=O)Nc1ccccc1C (stereo not drawn) [Prilocaine Base]
- solubility [5]: ~137 mg/mL (≈ 622 mM)

Structure (SMILES): COc1cccc(C2(O)CCCCC2CN(C)C)c1 (stereo not drawn) [Tramadol HCl]
- solubility in Miglyol [4]: insoluble

Reference: patent publication US20120058158A1, “Sublingual Pharmaceutical Composition Comprising a Neutral Oil” (priority 2009, published 2012)
